# Measured values from US20250296953A1, “3,4-THIAZOLO-STEROIDS AND METHODS OF MAKING AND USING THE SAME” (Arkansas State University - Jonesboro, priority 2018, published 2025).
# Read-outs that look alike come from different tables or passages of the source.
# Columns and labels:
# [1] = tested on: 60 different human tumor cell lines; test: NCI Development Therapeutics Program 60 cell line screen, one dose; type: cell-based
# [2] = tested on: NCI-H522 (NSCLC); test: NCI 60 one dose screen; type: cell-based, human; conditions: Non-small Cell Lung Cancer
# [3] = tested on: SF-295; test: NCI 60 one dose screen; type: cell-based, human; conditions: one dose; CNS Cancer; SF-295
# [4] = tested on: SF-539; test: NCI 60 one dose screen; type: cell-based, human; conditions: one dose; CNS Cancer; SF-539
# [5] = tested on: 60 different human tumor cell lines; conditions: five dose
# [6] = tested on: glioblastoma (SF-295); test: NCI 60 five dose screen
# [7] = tested on: RPMI-8226; test: NCI 60 five dose screen
# [8] = tested on: SR; test: NCI 60 five dose screen
smiles,measurement,setting,value
"C[C@]12CC[C@H]3[C@@H](CC=C4c5sc(-c6ccc(O)cc6)nc5CC[C@@]43C)[C@@H]1CC[C@@H]2O [III.5, (1S,2R,13R,14S,17S,18S)-7-(4-hydroxyphenyl)-2,18-dimethyl-8-thia-6-azapentacyclo[11.7.0.02,10.05,9.014,18]icosa-5(9),6,10-trien-17-ol]",Growth Percent,"[1]; Breast Cancer, BT-549",59.26%
same,Growth Percent,"[1]; Breast Cancer, HS 578T",4.16%
same,Growth Percent,"[1]; Breast Cancer, MCF7",42.59%
same,Growth Percent,"[1]; Breast Cancer, MDA-MB-231/ATCC",56.24%
same,Growth Percent,"[1]; Breast Cancer, MDA-MB-468",81.03%
same,Growth Percent,"[1]; Breast Cancer, T-47D",67.74%
same,Growth Percent,"[1]; CNS Cancer, SF-268",48.55%
same,Growth Percent,"[1]; CNS Cancer, SNB-19",71.05%
same,Growth Percent,"[1]; CNS Cancer, SNB-75",26.42%
same,Growth Percent,"[1]; CNS Cancer, U251",20.08%
same,Growth Percent,"[1]; Colon Cancer, COLO 205",77.66%
same,Growth Percent,"[1]; Colon Cancer, HCC-2998",95.33%
same,Growth Percent,"[1]; Colon Cancer, HCT-116",43.80%
same,Growth Percent,"[1]; Colon Cancer, HT29",19.90%
same,Growth Percent,"[1]; Colon Cancer, KM12",60.79%
same,Growth Percent,"[1]; Colon Cancer, SW-620",71.71%
same,Growth Percent,"[1]; Leukemia, CCRF-CEM",13.10%
same,Growth Percent,"[1]; Leukemia, HL-60(TB)",22.65%
same,Growth Percent,"[1]; Leukemia, K-562",13.87%
same,Growth Percent,"[1]; Leukemia, MOLT-4",−23.23%
same,Growth Percent,"[1]; Leukemia, RPMI-8226",−36.92%
same,Growth Percent,"[1]; Leukemia, SR",5.95%
same,Growth Percent,"[1]; Melanoma, LOX IMVI",25.37%
same,Growth Percent,"[1]; Melanoma, M14",60.54%
same,Growth Percent,"[1]; Melanoma, MALME-3M",72.42%
same,Growth Percent,"[1]; Melanoma, MDA-MB-435",91.96%
same,Growth Percent,"[1]; Melanoma, SK-MEL-2",44.94%
same,Growth Percent,"[1]; Melanoma, SK-MEL-5",71.98%
same,Growth Percent,"[1]; Melanoma, SK-MEL-28",53.31%
same,Growth Percent,"[1]; Melanoma, UACC-62",28.69%
same,Growth Percent,"[1]; Melanoma, UACC-257",66.19%
same,Growth Percent,"[1]; Non-small Cell Lung Cancer, A549/ATCC",52.15%
same,Growth Percent,"[1]; Non-small Cell Lung Cancer, EKVX",63.56%
same,Growth Percent,"[1]; Non-small Cell Lung Cancer, HOP-62",46.75%
same,Growth Percent,"[1]; Non-small Cell Lung Cancer, NCI-H23",74.72%
same,Growth Percent,"[1]; Non-small Cell Lung Cancer, NCI-H226",109.87%
same,Growth Percent,"[1]; Non-small Cell Lung Cancer, NCI-H322M",92.82%
same,Growth Percent,"[1]; Non-small Cell Lung Cancer, NCI-H460",41.91%
same,Growth Percent,"[1]; Ovarian Cancer, IGROV1",80.66%
same,Growth Percent,"[1]; Ovarian Cancer, NCI/ADR-RES",76.79%
same,Growth Percent,"[1]; Ovarian Cancer, OVCAR-3",38.63%
same,Growth Percent,"[1]; Ovarian Cancer, OVCAR-4",81.75%
same,Growth Percent,"[1]; Ovarian Cancer, OVCAR-5",106.38%
same,Growth Percent,"[1]; Ovarian Cancer, OVCAR-8",74.18%
same,Growth Percent,"[1]; Ovarian Cancer, SK-OV-3",38.63%
same,Growth Percent,"[1]; Prostate Cancer, DU-145",63.77%
same,Growth Percent,"[1]; Prostate Cancer, PC-3",49.49%
same,Growth Percent,"[1]; Renal Cancer, 786-0",8.35%
same,Growth Percent,"[1]; Renal Cancer, A498",49.45%
same,Growth Percent,"[1]; Renal Cancer, ACHN",46.04%
same,Growth Percent,"[1]; Renal Cancer, CAKI-1",61.32%
same,Growth Percent,"[1]; Renal Cancer, RXF 393",−46.32%
same,Growth Percent,"[1]; Renal Cancer, SN12C",96.68%
same,Growth Percent,"[1]; Renal Cancer, TK-10",89.27%
same,Growth Percent,"[1]; Renal Cancer, UO-31",9.33%
same,Growth Percent,[2],41.21%
same,Growth Percent,[3],−36.24%
same,Growth Percent,[4],8.02%
same,TGI,[5]; 786-0 (Renal Cancer),2.39E−6
same,TGI,[5]; A498 (Renal Cancer),2.13E−5
same,TGI,[5]; A549/ATCC (Non-small Cell Lung Cancer),>1.00E−4
same,TGI,[5]; ACHN (Renal Cancer),>1.00E−4
same,TGI,[5]; BT-549 (Breast Cancer),1.94E−5
same,TGI,[5]; CAKI-1 (Renal Cancer),>1.00E−4
same,TGI,[5]; CCRF-CEM (Leukemia),4.72E−5
same,TGI,[5]; COLO 205 (Colon Cancer),>1.00E−4
same,TGI,[5]; DU-145 (Prostate Cancer),>1.00E−4
same,TGI,[5]; EKVX (Non-small Cell Lung Cancer),>1.00E−4
same,TGI,[5]; HCC-2998 (Colon Cancer),>1.00E−4
same,TGI,[5]; HCT-15 (Colon Cancer),2.07E−5
same,TGI,[5]; HCT-116 (Colon Cancer),2.74E−5
same,TGI,[5]; HL-60(TB) (Leukemia),>1.00E−4
same,TGI,[5]; HOP-62 (Non-small Cell Lung Cancer),5.05E−5
same,TGI,[5]; HS 578T (Breast Cancer),6.01E−5
same,TGI,[5]; HT29 (Colon Cancer),2.04E−5
same,TGI,[5]; IGROV1 (Ovarian Cancer),>1.00E−4
same,TGI,[5]; K-562 (Leukemia),>1.00E−4
same,TGI,[5]; KM12 (Colon Cancer),>1.00E−4
same,TGI,[5]; LOX IMVI (Melanoma),1.46E−5
same,TGI,[5]; M14 (Melanoma),2.93E−5
same,TGI,[5]; MALME-3M (Melanoma),>1.00E−4
same,TGI,[5]; MCF7 (Breast Cancer),2.15E−5
same,TGI,[5]; MDA-MB-231/ATCC (Breast Cancer),3.29E−5
same,TGI,[5]; MDA-MB-435 (Melanoma),>1.00E−4
same,TGI,[5]; MDA-MB-468 (Breast Cancer),4.16E−5
same,TGI,[5]; MOLT-4 (Leukemia),>1.00E−4
same,TGI,[5]; NCI-H23 (Non-small Cell Lung Cancer),>1.00E−4
same,TGI,[5]; NCI-H226 (Non-small Cell Lung Cancer),>1.00E−4
same,TGI,[5]; NCI-H322M (Non-small Cell Lung Cancer),>1.00E−4
same,TGI,[5]; NCI-H460 (Non-small Cell Lung Cancer),>1.00E−4
same,TGI,[5]; NCI-H522 (Non-small Cell Lung Cancer),>1.00E−4
same,TGI,[5]; NCI/ADR-RES (Ovarian Cancer),>1.00E−4
same,TGI,[5]; OVCAR-3 (Ovarian Cancer),8.37E−5
same,TGI,[5]; OVCAR-4 (Ovarian Cancer),>1.00E−4
same,TGI,[5]; OVCAR-5 (Ovarian Cancer),>1.00E−4
same,TGI,[5]; OVCAR-8 (Ovarian Cancer),>1.00E−4
same,TGI,[5]; RXF 393 (Renal Cancer),1.31E−6
same,TGI,[5]; SF-268 (CNS Cancer),>1.00E−4
same,TGI,[5]; SK-MEL-2 (Melanoma),6.94E−5
same,TGI,[5]; SK-MEL-5 (Melanoma),1.31E−5
same,TGI,[5]; SK-MEL-28 (Melanoma),6.60E−5
same,TGI,[5]; SK-OV-3 (Ovarian Cancer),>1.00E−4
same,TGI,[5]; SN12C (Renal Cancer),>1.00E−4
same,TGI,[5]; SNB-19 (CNS Cancer),>1.00E−4
same,TGI,[5]; SNB-75 (CNS Cancer),2.57E−5
same,TGI,[5]; SW-620 (Colon Cancer),>1.00E−4
same,TGI,[5]; T-47D (Breast Cancer),>1.00E−4
same,TGI,[5]; TK-10 (Renal Cancer),>1.00E−4
same,TGI,[5]; U251 (CNS Cancer),6.73E−5
same,TGI,[5]; UACC-62 (Melanoma),7.64E−6
same,TGI,[5]; UACC-257 (Melanoma),>1.00E−4
same,TGI,[5]; UO-31 (Renal Cancer),2.04E−5
same,GI50,"[6]; Homo sapiens, SF-295",0.413 µM
same,CC50,"[6]; Homo sapiens, SF-295, read-out: LC50",8.2 µM
same,TGI,"[6]; SF-295 (CNS Cancer), five dose",2.03E−6
same,CC50,"[7]; Homo sapiens, RPMI-8226, read-out: LC50",> 100 µM
same,TGI,"[7]; RPMI-8226 (Leukemia), five dose",2.50E−6
same,GI50,"[8]; Homo sapiens, SR",1.37 µM
same,CC50,"[8]; Homo sapiens, SR, read-out: LC50",> 100 µM
same,TGI,"[8]; SR (Leukemia), five dose",3.38E−5
